According to paper PMC5557014 (Biochemical pharmacology, 2017):
Like-named read-outs stand apart in the source and are kept apart here.

Assays:
[1] = biological target: T1, cellular DNA polymerase α (Homo sapiens, UniProt P09884); test: Cellular DNA polymerase α assay; assay type: biochemical
T1 sequence (P09884 1-1462): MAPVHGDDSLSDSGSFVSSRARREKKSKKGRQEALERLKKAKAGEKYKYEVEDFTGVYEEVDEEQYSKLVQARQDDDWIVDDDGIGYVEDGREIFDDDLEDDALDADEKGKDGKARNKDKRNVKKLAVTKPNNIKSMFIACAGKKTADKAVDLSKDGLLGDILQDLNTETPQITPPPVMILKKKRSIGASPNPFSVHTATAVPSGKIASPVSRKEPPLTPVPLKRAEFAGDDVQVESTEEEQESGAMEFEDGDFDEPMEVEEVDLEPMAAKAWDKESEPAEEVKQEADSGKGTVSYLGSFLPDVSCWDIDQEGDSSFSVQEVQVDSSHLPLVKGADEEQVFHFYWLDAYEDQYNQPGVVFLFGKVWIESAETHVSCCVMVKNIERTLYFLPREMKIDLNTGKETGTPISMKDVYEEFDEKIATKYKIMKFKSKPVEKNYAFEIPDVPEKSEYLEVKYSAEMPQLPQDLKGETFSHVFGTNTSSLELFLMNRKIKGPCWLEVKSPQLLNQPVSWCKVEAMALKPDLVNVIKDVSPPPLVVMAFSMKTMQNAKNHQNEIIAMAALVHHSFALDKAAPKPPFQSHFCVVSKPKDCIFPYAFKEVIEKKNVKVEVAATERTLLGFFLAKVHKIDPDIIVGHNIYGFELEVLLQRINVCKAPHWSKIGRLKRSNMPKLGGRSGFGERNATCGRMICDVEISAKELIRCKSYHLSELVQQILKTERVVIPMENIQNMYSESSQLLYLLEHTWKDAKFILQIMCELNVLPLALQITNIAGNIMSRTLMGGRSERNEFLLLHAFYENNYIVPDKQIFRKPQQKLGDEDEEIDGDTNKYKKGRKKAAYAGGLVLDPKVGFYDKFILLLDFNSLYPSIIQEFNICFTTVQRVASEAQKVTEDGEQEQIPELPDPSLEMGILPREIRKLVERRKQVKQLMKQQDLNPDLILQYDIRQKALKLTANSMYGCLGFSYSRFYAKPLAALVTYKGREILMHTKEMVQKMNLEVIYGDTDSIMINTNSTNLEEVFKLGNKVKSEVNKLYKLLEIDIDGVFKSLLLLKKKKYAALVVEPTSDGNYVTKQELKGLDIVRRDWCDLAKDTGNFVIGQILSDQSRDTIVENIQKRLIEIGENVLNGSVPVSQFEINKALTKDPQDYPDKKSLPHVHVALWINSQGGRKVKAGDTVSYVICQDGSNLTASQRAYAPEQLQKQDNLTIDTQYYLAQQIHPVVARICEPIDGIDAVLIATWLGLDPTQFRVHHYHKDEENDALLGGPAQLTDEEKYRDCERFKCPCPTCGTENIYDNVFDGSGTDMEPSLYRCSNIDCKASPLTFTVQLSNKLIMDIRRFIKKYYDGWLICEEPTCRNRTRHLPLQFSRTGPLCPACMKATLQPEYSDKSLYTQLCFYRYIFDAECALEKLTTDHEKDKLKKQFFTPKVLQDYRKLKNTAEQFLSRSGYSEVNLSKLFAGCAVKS

HCMV DNA polymerase [2] = biological target: T2, HCMV DNA polymerase (Human cytomegalovirus, UniProt P08546); test: HCMV DNA polymerase enzyme assay; assay type: biochemical; conditions: calf thymus DNA
HIV-1 RT [3] = biological target: T3, HIV-1 RT (Human immunodeficiency virus type 1 group M subtype B, UniProt P04585); test: HIV-1 RT assay with homopolymeric template/primers; assay type: biochemical
HSV-1 DNA polymerase [4] = biological target: T4, HSV-1 DNA polymerase (Human herpesvirus 1, UniProt P04293); test: HSV-1 DNA polymerase enzyme assay; assay type: biochemical; conditions: calf thymus DNA
[5] = biological target: cellular DNA polymerase β (Homo sapiens, UniProt P06746); test: Cellular DNA polymerase β assay; assay type: biochemical
HIV-1 RT Y115F = test: Mutant HIV-1 RT assay Y115F; assay type: biochemical; conditions: Poly rC.dG [^3H]dGTP
HIV-1 RT K70E = test: Mutant HIV-1 RT assay K70E; assay type: biochemical; conditions: Poly rC.dG [^3H]dGTP
HIV-1 RT Q151M = test: Mutant HIV-1 RT assay Q151M; assay type: biochemical; conditions: Poly rC.dG [^3H]dGTP
HIV-1 RT F61A = test: Mutant HIV-1 RT assay F61A; assay type: biochemical; conditions: Poly rC.dG [^3H]dGTP
HIV-1 RT M184V = test: Mutant HIV-1 RT assay M184V; assay type: biochemical; conditions: Poly rC.dG [^3H]dGTP
HIV-1 RT M184I = test: Mutant HIV-1 RT assay M184I; assay type: biochemical; conditions: Poly rC.dG [^3H]dGTP
HIV-1 RT V106A = conditions: Poly rC.dG [^3H]dGTP
HIV-1 RT M184V + E138K = test: Mutant HIV-1 RT assay M184V + E138K; assay type: biochemical; conditions: Poly rC.dG [^3H]dGTP
HIV-1 RT [6] = biological target: T3, HIV-1 RT; test: Site-specific Fe2+ footprinting, post-translocation trapping; assay type: binding
HIV-1 RT Y181C = conditions: Poly rC.dG [^3H]dGTP
HIV-1 RT [7] = biological target: T3, HIV-1 RT; test: Kinetic analysis of HIV-1 RT inhibition; assay type: biochemical
HIV-1 RT K70Q = test: Mutant HIV-1 RT assay K70Q; assay type: biochemical; conditions: Poly rC.dG [^3H]dGTP
HIV-1 RT K103N = conditions: Poly rC.dG [^3H]dGTP
HIV-1 RT [8] = biological target: T3, HIV-1 RT; test: Gel-based HIV-1 RT-catalyzed DNA synthesis on heteropolymeric DNA; assay type: biochemical
HIV-1 RT K65R = test: Mutant HIV-1 RT assay K65R; assay type: biochemical; conditions: Poly rC.dG [^3H]dGTP
HIV-1 RT E138K = test: Mutant HIV-1 RT assay E138K; assay type: biochemical; conditions: Poly rC.dG [^3H]dGTP
HCMV DNA polymerase [9] = biological target: T2, HCMV DNA polymerase; test: Kinetic analysis of HCMV DNA polymerase inhibition; assay type: biochemical; conditions: varying dGTP, calf thymus DNA
HIV-1 RT K70R = test: Mutant HIV-1 RT assay K70R; assay type: biochemical; conditions: Poly rC.dG [^3H]dGTP
HSV-1 DNA polymerase [10] = biological target: T4, HSV-1 DNA polymerase; test: biochemical; assay type: biochemical; conditions: varying dGTP, calf thymus DNA
HIV-1 RT L100I = conditions: Poly rC.dG [^3H]dGTP
HIV-1 RT M184V + Y115F = test: Mutant HIV-1 RT assay M184V + Y115F; assay type: biochemical; conditions: Poly rC.dG [^3H]dGTP
HIV-1 RT V75I = test: Mutant HIV-1 RT assay V75I; assay type: biochemical; conditions: Poly rC.dG [^3H]dGTP
[11] = IC50 HIV-1 RT, poly rA.dT, [^3H]dTTP
[12] = IC50 HIV-1 RT, poly rC.dG, [^3H]dGTP

T2 sequence (P08546 whole entry): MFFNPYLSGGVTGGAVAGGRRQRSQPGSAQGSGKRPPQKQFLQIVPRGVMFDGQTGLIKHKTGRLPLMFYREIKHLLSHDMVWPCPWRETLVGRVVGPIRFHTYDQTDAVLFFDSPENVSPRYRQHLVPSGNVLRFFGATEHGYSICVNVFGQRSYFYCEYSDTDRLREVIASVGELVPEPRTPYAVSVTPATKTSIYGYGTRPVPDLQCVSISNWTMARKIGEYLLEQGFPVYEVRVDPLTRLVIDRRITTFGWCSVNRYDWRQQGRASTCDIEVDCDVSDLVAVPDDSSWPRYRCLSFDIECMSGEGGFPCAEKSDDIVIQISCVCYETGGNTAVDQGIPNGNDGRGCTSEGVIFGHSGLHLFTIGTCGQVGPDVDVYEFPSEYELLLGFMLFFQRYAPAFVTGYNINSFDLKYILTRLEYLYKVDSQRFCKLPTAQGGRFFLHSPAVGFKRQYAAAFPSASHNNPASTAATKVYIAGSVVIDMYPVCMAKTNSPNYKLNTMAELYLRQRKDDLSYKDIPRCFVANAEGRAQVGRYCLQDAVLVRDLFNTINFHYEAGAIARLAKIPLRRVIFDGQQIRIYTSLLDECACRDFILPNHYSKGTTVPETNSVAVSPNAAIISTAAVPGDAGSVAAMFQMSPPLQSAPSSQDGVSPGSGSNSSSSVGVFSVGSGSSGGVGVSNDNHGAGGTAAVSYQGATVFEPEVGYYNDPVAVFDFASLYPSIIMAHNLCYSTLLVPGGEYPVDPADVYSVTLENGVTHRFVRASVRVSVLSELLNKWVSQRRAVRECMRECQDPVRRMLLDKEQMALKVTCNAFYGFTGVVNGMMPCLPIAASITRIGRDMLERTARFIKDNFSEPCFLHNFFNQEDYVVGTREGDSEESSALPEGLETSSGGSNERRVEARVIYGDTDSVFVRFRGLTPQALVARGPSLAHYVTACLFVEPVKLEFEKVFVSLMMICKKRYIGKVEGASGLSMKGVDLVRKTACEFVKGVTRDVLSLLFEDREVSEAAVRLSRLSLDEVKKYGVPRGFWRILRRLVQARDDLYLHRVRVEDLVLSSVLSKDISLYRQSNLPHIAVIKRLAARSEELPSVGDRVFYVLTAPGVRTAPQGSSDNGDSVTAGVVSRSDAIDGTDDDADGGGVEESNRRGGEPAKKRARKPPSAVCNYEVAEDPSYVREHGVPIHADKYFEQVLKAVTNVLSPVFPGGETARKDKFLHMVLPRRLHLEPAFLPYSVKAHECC
T4 sequence (P04293 whole entry): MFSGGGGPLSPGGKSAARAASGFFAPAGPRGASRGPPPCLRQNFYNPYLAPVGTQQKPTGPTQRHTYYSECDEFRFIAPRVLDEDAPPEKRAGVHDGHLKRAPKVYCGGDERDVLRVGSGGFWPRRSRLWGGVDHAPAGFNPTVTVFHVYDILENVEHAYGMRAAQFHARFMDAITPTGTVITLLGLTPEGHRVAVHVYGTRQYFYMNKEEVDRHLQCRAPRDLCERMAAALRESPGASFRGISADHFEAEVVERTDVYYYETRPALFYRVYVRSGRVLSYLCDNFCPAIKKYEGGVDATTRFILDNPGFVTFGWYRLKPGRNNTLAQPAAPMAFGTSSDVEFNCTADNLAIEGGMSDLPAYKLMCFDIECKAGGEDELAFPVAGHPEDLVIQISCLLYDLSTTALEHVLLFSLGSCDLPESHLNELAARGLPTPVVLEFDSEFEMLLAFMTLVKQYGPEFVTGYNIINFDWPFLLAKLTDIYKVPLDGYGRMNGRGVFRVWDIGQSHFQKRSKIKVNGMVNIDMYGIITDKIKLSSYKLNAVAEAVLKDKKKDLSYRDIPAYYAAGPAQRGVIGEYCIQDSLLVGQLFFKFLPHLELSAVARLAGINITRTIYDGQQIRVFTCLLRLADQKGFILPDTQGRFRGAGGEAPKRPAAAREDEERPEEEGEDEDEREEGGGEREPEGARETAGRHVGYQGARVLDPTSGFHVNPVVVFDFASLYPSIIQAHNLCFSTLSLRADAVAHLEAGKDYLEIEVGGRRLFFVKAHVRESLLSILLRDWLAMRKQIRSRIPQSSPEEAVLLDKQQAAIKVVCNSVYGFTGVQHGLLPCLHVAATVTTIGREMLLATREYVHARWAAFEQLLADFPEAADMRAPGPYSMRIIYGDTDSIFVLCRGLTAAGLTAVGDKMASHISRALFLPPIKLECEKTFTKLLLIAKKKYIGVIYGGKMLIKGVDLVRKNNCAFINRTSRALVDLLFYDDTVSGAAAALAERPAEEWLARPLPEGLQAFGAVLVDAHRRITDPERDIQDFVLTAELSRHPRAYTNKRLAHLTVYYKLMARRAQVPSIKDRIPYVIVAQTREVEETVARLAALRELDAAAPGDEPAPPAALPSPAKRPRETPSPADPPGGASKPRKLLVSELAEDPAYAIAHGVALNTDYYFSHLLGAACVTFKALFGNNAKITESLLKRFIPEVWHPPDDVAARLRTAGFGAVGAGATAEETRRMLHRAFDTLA

SMILES: O=C(O)P(=O)(O)O [PFA]
- IC50 ([1]; read-out: IC50 α DNA pol, calf thymus DNA, [^3H]dGTP): 56 ± 12 µM
- IC50 (HCMV DNA polymerase [2]; read-out: IC50 HCMV DNA pol, [^3H]dGTP): 7 ± 0.7 µM
- IC50 (HCMV DNA polymerase [2]; read-out: IC50 HCMV DNA pol, [^3H]dTTP): 9.4 ± 6 µM
- IC50 (HIV-1 RT [3]; read-out: IC50 HIV-1 RT, poly rA.dT, [^3H]dTTP): 0.55 ± 0.01 µM
- IC50 (HIV-1 RT [3]; read-out: IC50 HIV-1 RT, poly rC.dG, [^3H]dGTP): 17 ± 2 µM
- IC50 (HSV-1 DNA polymerase [4]; read-out: IC50 HSV-1 DNA pol, [^3H]dGTP): 1.6 ± 0.8 µM
- IC50 (HSV-1 DNA polymerase [4]; read-out: IC50 HSV-1 DNA pol, [^3H]dTTP): 3.5 ± 1.7 µM
- IC50 ([5]; read-out: IC50 β DNA pol, calf thymus DNA, [^3H]dGTP): > 100 µM

SMILES: Nc1nc2c(ncn2[C@@H]2CC[C@H](OC(C(=O)O)P(=O)(O)O)C2)c(=O)[nH]1 (mixture of isomers) [(L,D)-(±)G-α-CNP, cis-9-{4-[Carboxy(phosphono)methoxy]cyclopentan-1-yl}guanine]
- Fold-resistance compared to wild-type (HIV-1 RT Y115F): 2.3 fold
- IC50 [1]: 477 ± 83 µM
- Fold-resistance compared to wild-type (HIV-1 RT K70E): 0.7 fold
- Fold-resistance compared to wild-type (HIV-1 RT Q151M): 3.1 fold
- IC50 (HCMV DNA polymerase [2]; IC50 HCMV DNA pol, [^3H]dGTP): 9.4 ± 0.2 µM
- IC50 (HCMV DNA polymerase [2]; IC50 HCMV DNA pol, [^3H]dTTP): 16 ± 8 µM
- Fold-resistance compared to wild-type (HIV-1 RT F61A): 79 fold
- Fold-resistance compared to wild-type (HIV-1 RT M184V): 8.7 fold
- Fold-resistance compared to wild-type (HIV-1 RT M184I): 19 fold
- Fold-resistance compared to wild-type (HIV-1 RT V106A): 1.6 fold
- Fold-resistance compared to wild-type (HIV-1 RT M184V + E138K): 6.1 fold
- EC50 (HIV-1 RT [6]): 0.044 ± 0.002 µM
- Fold-resistance compared to wild-type (HIV-1 RT Y181C): 5.2 fold
- Ki (HIV-1 RT [7]; competitive model, varying dGTP, poly rC.dG): 0.455 µM
- Ki (HIV-1 RT [7]; competitive model, varying poly rC.dG): 0.035 µM
- Ki (HIV-1 RT [7]; mixed model enzyme inhibition, varying dGTP, poly rC.dG): 0.944 µM
- Ki (HIV-1 RT [7]; mixed model enzyme inhibition, varying poly rC.dG): 0.832 µM
- Ki (HIV-1 RT [7]; non-competitive model, varying dGTP, poly rC.dG): 1.3 µM
- Ki (HIV-1 RT [7]; non-competitive model, varying poly rC.dG): 0.169 µM
- Most likely mode of inhibition (HIV-1 RT [7]; varying dGTP, poly rC.dG): Competitive
- α (alpha-value), mixed model enzyme inhibition (HIV-1 RT [7]; varying dGTP, poly rC.dG): 1.799
- Most likely mode of inhibition (HIV-1 RT [7]; varying poly rC.dG): Non-competitive
- α (alpha-value), mixed model enzyme inhibition (HIV-1 RT [7]; varying poly rC.dG): 0.147
- Fold-resistance compared to wild-type (HIV-1 RT K70Q): 0.7 fold
- IC50 (HIV-1 RT [3]; [11]): 536 µM
- IC50 (HIV-1 RT [3]; [12]): 0.62 ± 0.19 µM
- IC50 (HSV-1 DNA polymerase [4]; IC50 HSV-1 DNA pol, [^3H]dGTP): 8 ± 6 µM
- IC50 (HSV-1 DNA polymerase [4]; IC50 HSV-1 DNA pol, [^3H]dTTP): 32 ± 11 µM
- Fold-resistance compared to wild-type (HIV-1 RT K103N): 1.1 fold
- IC50 (HIV-1 RT [8]): 1.8 ± 1.1 µM
- Fold-resistance compared to wild-type (HIV-1 RT K65R): 2.1 fold
- Fold-resistance compared to wild-type (HIV-1 RT E138K): 0.9 fold
- Ki (HCMV DNA polymerase [9]; competitive model): 2.12 µM
- Ki (HCMV DNA polymerase [9]; mixed model enzyme inhibition): 9.2 µM
- Ki (HCMV DNA polymerase [9]; non-competitive model): 8.59 µM
- Most likely mode of inhibition (HCMV DNA polymerase [9]): Non-competitive
- α (alpha-value), mixed model enzyme inhibition (HCMV DNA polymerase [9]; listed as (D,L)-(−,+)-G-α-CNP): 0.904
- IC50 [5]: 531 ± 5 µM
- Fold-resistance compared to wild-type (HIV-1 RT K70R): 2.6 fold
- Ki (HSV-1 DNA polymerase [10]; competitive model): 0.521 µM
- Ki (HSV-1 DNA polymerase [10]; mixed model enzyme inhibition): 9.28 µM
- Ki (HSV-1 DNA polymerase [10]; non-competitive model): 4.17 µM
- Most likely mode of inhibition (HSV-1 DNA polymerase [10]): Non-competitive
- α (alpha-value), mixed model enzyme inhibition (HSV-1 DNA polymerase [10]): 0.386
- Fold-resistance compared to wild-type (HIV-1 RT L100I): 5.2 fold
- Fold-resistance compared to wild-type (HIV-1 RT M184V + Y115F): 39 fold
- Fold-resistance compared to wild-type (HIV-1 RT V75I): 8.7 fold

SMILES: Nc1nc2c(ncn2[C@H]2CC[C@@H](COP(=O)(O)OP(=O)(O)OP(=O)(O)O)O2)c(=O)[nH]1 [ddGTP, 2′,3′-dideoxyguanosine-5′-triphosphate]
- IC50 [1]: 73 ± 8 µM
- IC50 (HCMV DNA polymerase [2]; IC50 HCMV DNA pol, [^3H]dGTP): 48 ± 15 µM
- IC50 (HCMV DNA polymerase [2]; IC50 HCMV DNA pol, [^3H]dTTP): > 100 µM
- IC50 (HIV-1 RT [3]; [11]): > 100 µM
- IC50 (HIV-1 RT [3]; [12]): 0.41 ± 0.02 µM
- IC50 (HSV-1 DNA polymerase [4]; IC50 HSV-1 DNA pol, [^3H]dGTP): 4.5 ± 1.2 µM
- IC50 (HSV-1 DNA polymerase [4]; IC50 HSV-1 DNA pol, [^3H]dTTP): > 100 µM
- IC50 [5]: 2.2 ± 1.8 µM
